Source: paper PMC11311998, “AR71, Histamine H3 Receptor Ligand—In Vitro and In Vivo Evaluation (Anti-Inflammatory Activity, Metabolic Stability, Toxicity, and Analgesic Action)” (International Journal of Molecular Sciences, 2024)
Where “and” joins values, the source holds several entries; their conditions need not be identical. Equal values may be shown once.

Columns and labels:
SH-SY5Y cells [1] = test: mitochondrial membrane potential (JC-10); assay type: cell-based, human; settings: 0.78 μM
Method: Neurotoxin-like rotenone induces oxidative stress inside cells that might influence mitochondrial membrane potential (MMP). Maintaining unaffected MMP is essential for neuroprotection. In our study, we tested the effect of AR71 on MMP in the presence and absence of rotenone.
Next, the effect of AR71 (0.78 μM) when co-treated with rotenone was tested; 1 μM carbonyl cyanide m-chlorophenylhydrazone (CCCP) was used as a positive control.
The MMP was measured by a commercially available kit (Sigma Aldrich, MAK159, for live cells) that utilises a cationic, lipophilic dye JC-10. It allows for ratiometric analysis of mitochondrial membrane potential, where a shift from orange (λEX/λEM: 540 nm/590 nm) to green fluorescence (λEX/λEM: 490 nm/525 nm) is indicative of compromised mitochondria. For this assay, the SH-SY5Y cells (1 × 10^4 cells/well) were seeded in a black-sided clear bottom 96-well plate (Thermo Scientific Nunclon^TM Delta Surface no. 137101, Denmark) in a complete culture medium. First, to choose the optimal concentration of rotenone in this assay, a dose–response effect of rotenone (0.05, 0.5, 5, 50 μM) was studied. Next, the cells were pre-treated with AR71 (0.78 μM) for 1 h before rotenone stimulation (50 μM) for another 3 h. […] The positive control was carbonyl cyanide m-chlorophenylhydrazone (CCCP; 1 μM)—uncoupling agent on the proton gradient. After incubation, 50 μL/well of the JC-10 dye loading solution was added to each well with cells. The plate was incubated for 45 min in the incubator. Then, 50 μL/well of Assay Buffer B was added to each well, and the fluorescence was monitored immediately. The red/green fluorescence intensity ratio was used to calculate the results.

hH1R = target: hH1R; parameters: method as in PMID 36370200; settings: cited from earlier work
SH-SY5Y cells [2] = test: viability of neuroblastoma cells (MTS assay); assay type: cell-based, human
Method: The toxicity of AR71 in neuroblastoma cells was evaluated with the 3-(4,5-dimethylthiazol-2-yl)-5-(3-carboxymethoxyphenyl)-2-(4-sulfophenyl)-2H-tetrazolium (MTS) assay. The cells were cultured with AR71 at various concentrations ranging from nanomolar to micromolar for 24 h.
SH-SY5Y cells (the human neuroblastoma cell line) were purchased from the American Type Culture Collection (ATCC® no. CRL-2266™; Manassas, VA, USA). The cells were grown in a complete culture medium containing DMEM/F-12 medium (Gibco no. A41920-01) supplemented with 10% foetal bovine serum (FBS, Gibco no. 10500-064), non-essential amino acids (Biowest, Nuaillé, France), and antibiotics (Life Technologies) in a humidified incubator containing 95% air and 5% CO2 at 37 °C. Experiments were performed with SH-SY5Y cells from passage (15 up to 25—W.W.).
Neurotoxicity evaluation was performed with the SH-SY5Y cell line. The cells were seeded (5 × 10^3 cells/100 μL/well) in transparent 96-well plates (Corning Falcon, no. 353072, Merck KGaA, Darmstadt, Germany), in a complete culture medium and cultured overnight. The next day, the medium was removed and replaced with a fresh one containing 0.1% DMSO (vehicle control, Veh) or increasing concentration of the AR71 compound (the concentrations studied covered the range of nanomolar and micromolar concentrations). Treatment with the compounds was performed for 24 h. At the end of the incubation time, the cells were examined under an inverted microscope to rule out possible precipitation of the compound in the culture medium. Cell viability was examined using an MTS-based CellTiter96® AQueous One Solution Cell Proliferation Assay (Promega, Madison, WI, USA) following the manufacturer’s protocol. Briefly, 20 μL of MTS solution was pipetted directly into each well containing 100 μL of culture medium with or without cells (blank) and incubated at 37 °C for 1 h. The absorbance was measured at 490 nm using the Tecan Spark multimode plate reader (Tecan, Männedorf, Switzerland). A reference wavelength of 630 nm was used to subtract the background. The viability of individual samples was calculated relative to the vehicle-treated cells (0.1% DMSO). The results are presented as means with SEMs of two independent experiments, each comprising four replicates per treatment group. Data from the MTS assay were used to determine the IC50 value. It was calculated by fitting a nonlinear regression to a sigmoidal dose–response curve in GraphPad Prism version 8.0.1 (GraphPad Software, Inc., San Diego, CA, USA).

BV-2 cells = test: cytokine/chemokine panel in LPS-stimulated microglia (Luminex); assay type: cell-based, mouse
Excerpt: In the research presented in this paper, we extended the study of the anti-inflammatory properties of AR71 by analysing the panel of cytokines/chemokines in mouse microglia with the Luminex® platform. We applied MILLIPLEX® Magnetic Bead Panel that consists of nine different analytes regarding inflammation. Some of the analytes were below the limit of quantification, and the reason for this is explained in the text.
BV-2 cells (the murine microglial cell line) were purchased from the Interlab Cell Line Collection (ICLC) cell bank (ICLC, Genova, Italy). The cells were cultured in DMEM medium (Gibco no. 61965-026, ThermoFisher Scientific, Waltham, MA, USA) containing 10% charcoal-stripped foetal bovine serum (CS-FBS, Biowest no. S181f, batch no. S00NP) in a humidified incubator containing 95% air and 5% CO2 at 37 °C. CS-FBS was used to study the effect of compounds on neuroinflammation in vitro without the confounding effects of some cytokines that are naturally present in serum. Experiments were carried out with BV-2 cells from passages 7 to 13.
The Luminex assay is a form of immunoassay that utilises magnetic microparticles and the same sandwiching techniques as ELISAs. To analyse the panel of cytokines/chemokines in mouse microglia, we used a MILLIPLEX® Magnetic Bead Panel (MCYTOMAG-70K, Millipore, Sigma-Aldrich, Darmstadt, Germany). The following analytes were studied: IFN-γ, IL-1β, IL-4, IL-6, IL-10, IL-12 (p40), IP-10, MIP-2, and TNF-α. The preparation of antibody-immobilised beads, quality controls, mouse cytokine standard, and immunoassay procedure, were performed according to the manufacturer’s protocol. All standards, quality controls, and samples were analysed in duplicate on the Luminex 200 multiplexing instrument (Luminex Corp, Austin, TX, USA). Sample analyte concentrations were determined using Belysa 1.1.0 curve-fitting software and the standard curve data from each run (Millipore, Sigma-Aldrich, Darmstadt, Germany). To perform multiplex cytokine analysis, BV-2 cells (150 × 10^3 cells/well/500 μL in 24-well plate) were pre-treated for 1 h with AR71, and then LPS (1 μg/mL) was added to induce inflammation. The cells were cultured for another 24 h. After this time, cell culture supernatants were collected, centrifuged to remove cell debris, and stored at −80 °C for analysis. To avoid multiple freeze/thaw cycles, the samples were aliquoted.

[3] = 1 h pre-treatment, LPS 1 μg/mL, 24 h

Structure (SMILES): COc1cc(/C=C/C(=O)c2ccc(OCCCN3CCCCC3)cc2)cc(OC)c1OC [AR71, (E)-3-(3,4,5-trimethoxyphenyl)-1-(4-(3-(piperidin-1-yl)propoxy)phenyl)prop-2-en-1-one]
- effect on MMP of compound alone (SH-SY5Y cells [1]): did not affect mitochondrial membrane potential
- minimisation of loss of MMP compared with rotenone-treated cells (SH-SY5Y cells [1]; 1 h pre-treatment, then rotenone 50 μM for 3 h): 20%
- Ki (hH1R): 2700 nM and > 2500 nM
- loss in neuroblastoma viability vs control cells (SH-SY5Y cells [2]; 50 μM, 24 h): 73%
- concentration from which cell metabolic activity decreased significantly (p < 0.001) (SH-SY5Y cells [2]; 24 h): ≥ 4.17 µM
- IC50 (SH-SY5Y cells [2]; Homo sapiens, SH-SY5Y, 24 h incubation): 24900 nM
- effect on cell viability (SH-SY5Y cells [2]; concentrations up to 0.72 μM, 24 h): did not affect cell viability
- reduction of IL-1β vs level after LPS stimulation (BV-2 cells; [3]): 2.66 times lower
- reduction of IL-6 vs level after LPS stimulation (BV-2 cells; [3]): 5.94 times lower
- reduction of TNF-α vs level after LPS stimulation (BV-2 cells; [3]): 1.77 times lower
- effect on CXCL-10 (IP-10) (BV-2 cells; in the presence of LPS): repressed
- IL-4 level in the presence of LPS (BV-2 cells; with LPS): did not restore the level of IL-4 to the control point
- IL-4 level, compound alone (BV-2 cells; without LPS, vs unstimulated BV-2 cells): half the IL-4 content
